Target: T1, human TLR8 (Homo sapiens, UniProt Q9NR97)
T1 construct: host or cells: HEK-Blue cells
T1 sequence (Q9NR97 27-1041): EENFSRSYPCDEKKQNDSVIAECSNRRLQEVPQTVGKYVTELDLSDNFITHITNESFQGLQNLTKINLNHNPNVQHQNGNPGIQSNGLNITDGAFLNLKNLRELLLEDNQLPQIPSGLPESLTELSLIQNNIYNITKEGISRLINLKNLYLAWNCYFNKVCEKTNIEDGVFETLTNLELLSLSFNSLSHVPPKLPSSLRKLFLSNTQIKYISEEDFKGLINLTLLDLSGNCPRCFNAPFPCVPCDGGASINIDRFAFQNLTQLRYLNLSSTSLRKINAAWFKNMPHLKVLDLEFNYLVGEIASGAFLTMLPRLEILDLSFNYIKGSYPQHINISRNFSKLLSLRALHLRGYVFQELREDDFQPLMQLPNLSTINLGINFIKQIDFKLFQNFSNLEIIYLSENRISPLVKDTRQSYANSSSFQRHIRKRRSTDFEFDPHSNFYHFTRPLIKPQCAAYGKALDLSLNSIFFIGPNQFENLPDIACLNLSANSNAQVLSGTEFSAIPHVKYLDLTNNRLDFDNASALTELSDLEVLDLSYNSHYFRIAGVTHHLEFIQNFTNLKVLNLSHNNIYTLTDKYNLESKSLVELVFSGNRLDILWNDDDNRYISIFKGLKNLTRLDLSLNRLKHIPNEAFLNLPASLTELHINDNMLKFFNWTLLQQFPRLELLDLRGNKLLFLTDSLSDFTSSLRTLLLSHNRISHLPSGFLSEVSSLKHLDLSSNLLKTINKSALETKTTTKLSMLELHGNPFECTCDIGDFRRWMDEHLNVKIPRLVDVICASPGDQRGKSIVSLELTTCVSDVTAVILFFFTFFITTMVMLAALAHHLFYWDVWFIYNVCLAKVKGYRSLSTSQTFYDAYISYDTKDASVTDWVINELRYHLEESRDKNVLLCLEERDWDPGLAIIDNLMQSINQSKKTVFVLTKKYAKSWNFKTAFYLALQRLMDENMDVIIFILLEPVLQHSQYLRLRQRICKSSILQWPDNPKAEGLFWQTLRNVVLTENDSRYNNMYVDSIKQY
Test: TLR8 inhibition reporter assay (HEK-Blue SEAP)
Type: cell-based
Conditions: HEK-Blue cells overexpressing human TLR8, R848 15.9 μM, 22 hour incubation
Method in brief: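 Agonists used: gardiquimod 7.5 μM (TLR7), R848 15.9 μM (TLR8), ODN2006 5 nM (TLR9), added after 30 min room-temperature compound pre-treatment (0.05 nM–50 μM) of receptor-overexpressing HEK-Blue cells. SEAP reporter (NF-κB/AP-1 driven) read after 22 h at 37 °C; inhibition scaled between agonist+DMSO and reference-inhibitor wells.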

SMILES | IC50 [nM]
COc1cc(-c2cc3[nH]c(=O)n([C@H]4CC[C@@H](NC5CCCC5)CC4)c3cc2C)cn2ncnc12 [Example 65, 1-((1s,4s)-4-(cyclopentylamino)cyclohexyl)-5-(8-methoxy-[1,2,4]triazolo[1,5-a]pyridin-6-yl)-6-methyl-1,3-dihydro-2H-benzo[d]imidazol-2-one] | 1.7
Cc1cc2c(cc1-c1cc(C)c3ncnn3c1)[nH]c(=O)n2[C@H]1CCCN(CC(N)=O)C1 [Example 92, (S)-2-(3-(6-methyl-5-(8-methyl-[1,2,4]triazolo[1,5-a]pyridin-6-yl)-2-oxo-2,3-dihydro-1H-benzo[d]imidazol-1-yl)piperidin-1-yl)acetamide] | 177
COc1cc(-c2cc3[nH]c(=O)n([C@H]4CC[C@@H](NC5CCC5)CC4)c3cc2C)cn2ncnc12 [Example 58, 1-((1s,4s)-4-(cyclobutylamino)cyclohexyl)-5-(8-methoxy-[1,2,4]triazolo[1,5-a]pyridin-6-yl)-6-methyl-1,3-dihydro-2H-benzo[d]imidazol-2-one] | 5.2
COc1cc(-c2cc3[nH]c(=O)n([C@@H]4CCCN(CC5CCOCC5)C4)c3cc2C)cn2ncnc12 [Example 57, (R)-5-(8-methoxy-[1,2,4]triazolo[1,5-a]pyridin-6-yl)-6-methyl-1-(1-((tetrahydro-2H-pyran-4-yl)methyl)piperidin-3-yl)-1,3-dihydro-2H-benzo[d]imidazol-2-one] | 8.87
COc1cc(-c2ccc3c(c2)[nH]c(=O)n3C2CCN(C3COC3)CC2)cn2ncnc12 [Example 80, 5-(8-methoxy-[1,2,4]triazolo[1,5-a]pyridin-6-yl)-1-(1-(oxetan-3-yl)piperidin-4-yl)-1,3-dihydro-2H-benzo[d]imidazol-2-one] | > 3130
CCN1CCC[C@@H](n2c(=O)[nH]c3cc(-c4cc(OC)c5ncnn5c4)c(C)cc32)C1 [Example 52, (R)-1-(1-ethylpiperidin-3-yl)-5-(8-methoxy-[1,2,4]triazolo[1,5-a]pyridin-6-yl)-6-methyl-1,3-dihydro-2H-benzo[d]imidazol-2-one] | 25.7
CCC(CC)CN1CCC[C@@H](n2c(=O)[nH]c3cc(-c4cc(C)c5ncnn5c4)c(C)cc32)C1 [Example 45, (R)-1-(1-(2-ethylbutyl)piperidin-3-yl)-6-methyl-5-(8-methyl-[1,2,4]triazolo[1,5-a]pyridin-6-yl)-1,3-dihydro-2H-benzo[d]imidazol-2-one] | 48.1
Cc1cc2c(cc1-c1cc(C)c3ncnn3c1)[nH]c(=O)n2[C@@H]1CCCN(CC2CC2)C1 [Example 37, (R)-1-(1-(cyclopropylmethyl)piperidin-3-yl)-6-methyl-5-(8-methyl-[1,2,4]triazolo[1,5-a]pyridin-6-yl)-1,3-dihydro-2H-benzo[d]imidazol-2-one] | 28.7
COc1cc(-c2ccc3c(c2)[nH]c(=O)n3C2CCN(CC3CCOCC3)CC2)cn2ncnc12 [Example 78, 5-(8-methoxy-[1,2,4]triazolo[1,5-a]pyridin-6-yl)-1-(1-((tetrahydro-2H-pyran-4-yl)methyl)piperidin-4-yl)-1,3-dihydro-2H-benzo[d]imidazol-2-one] | 1380
CCCN[C@H]1CC[C@@H](n2c(=O)[nH]c3cc(-c4cc(OC)c5ncnn5c4)c(C)cc32)CC1 [Example 64, 5-(8-methoxy-[1,2,4]triazolo[1,5-a]pyridin-6-yl)-6-methyl-1-((1s,4s)-4-(propylamino)cyclohexyl)-1,3-dihydro-2H-benzo[d]imidazol-2-one] | 1.76
CNC(=O)CN1CCC(n2c(=O)[nH]c3cc(-c4cc(OC)c5ncnn5c4)c(C)cc32)CC1 [Example 87, 2-(4-(5-(8-methoxy-[1,2,4]triazolo[1,5-a]pyridin-6-yl)-6-methyl-2-oxo-2,3-dihydro-1H-benzo[d]imidazol-1-yl)piperidin-1-yl)-N-methylacetamide] | 377
COc1cc(-c2cc3[nH]c(=O)n([C@H]4CC[C@@H](N(C)C5CCOCC5)CC4)c3cc2C)cn2ncnc12 [Example 85, 5-(8-methoxy-[1,2,4]triazolo[1,5-a]pyridin-6-yl)-6-methyl-1-((1s,4s)-4-(methyl(tetrahydro-2H-pyran-4-yl)amino)cyclohexyl)-1,3-dihydro-2H-benzo[d]imidazol-2-one] | 7.14
COc1cc(-c2ccc3c(c2)[nH]c(=O)n3C2CCN(C3CCC3)CC2)cn2ncnc12 [Example 83, 1-(1-cyclobutylpiperidin-4-yl)-5-(8-methoxy-[1,2,4]triazolo[1,5-a]pyridin-6-yl)-1,3-dihydro-2H-benzo[d]imidazol-2-one] | 1260
COc1cc(-c2cc3[nH]c(=O)n([C@@H]4CCCN(C(C)C)C4)c3cc2C)cn2ncnc12 [Example 53, (R)-1-(1-isopropylpiperidin-3-yl)-5-(8-methoxy-[1,2,4]triazolo[1,5-a]pyridin-6-yl)-6-methyl-1,3-dihydro-2H-benzo[d]imidazol-2-one] | 35.9
Cc1cc2c(cc1-c1cc(C)c3ncnn3c1)[nH]c(=O)n2[C@H]1CC[C@@H](NCc2ncn(C)n2)CC1 [Example 33, 6-methyl-1-((1s,4s)-4-(((1-methyl-1H-1,2,4-triazol-3-yl)methyl)amino)cyclohexyl)-5-(8-methyl-[1,2,4]triazolo[1,5-a]pyridin-6-yl)-1,3-dihydro-2H-benzo[d]imidazol-2-one] | 10.9
COc1cc(-c2cc3[nH]c(=O)n([C@@H]4CCCN(C)C4)c3cc2C)cn2ncnc12 [Example 51, (R)-5-(8-methoxy-[1,2,4]triazolo[1,5-a]pyridin-6-yl)-6-methyl-1-(1-methylpiperidin-3-yl)-1,3-dihydro-2H-benzo[d]imidazol-2-one] | 21
CCC(CC)CN1CCC(n2c(=O)[nH]c3cc(-c4cc(OC)c5ncnn5c4)ccc32)CC1 [Example 75, 1-(1-(2-ethylbutyl)piperidin-4-yl)-5-(8-methoxy-[1,2,4]triazolo[1,5-a]pyridin-6-yl)-1,3-dihydro-2H-benzo[d]imidazol-2-one] | 1490
COc1cc(-c2cc3[nH]c(=O)n([C@@H]4CCCN(CC(C)(C)C)C4)c3cc2C)cn2ncnc12 [Example 71, (R)-5-(8-methoxy-[1,2,4]triazolo[1,5-a]pyridin-6-yl)-6-methyl-1-(1-neopentylpiperidin-3-yl)-1,3-dihydro-2H-benzo[d]imidazol-2-one] | 147
COc1cc(-c2cc3[nH]c(=O)n([C@@H]4CCCN(CCC(F)(F)F)C4)c3cc2C)cn2ncnc12 [Example 68, (R)-5-(8-methoxy-[1,2,4]triazolo[1,5-a]pyridin-6-yl)-6-methyl-1-(1-(3,3,3-trifluoropropyl)piperidin-3-yl)-1,3-dihydro-2H-benzo[d]imidazol-2-one] | 121
COc1cc(-c2cc3[nH]c(=O)n([C@@H]4CCCN(CC(C)C)C4)c3cc2C)cn2ncnc12 [Example 56, (R)-1-(1-isobutylpiperidin-3-yl)-5-(8-methoxy-[1,2,4]triazolo[1,5-a]pyridin-6-yl)-6-methyl-1,3-dihydro-2H-benzo[d]imidazol-2-one] | 11.2
Cc1cc2c(cc1-c1cc(C)c3ncnn3c1)[nH]c(=O)n2[C@@H]1CCCN(CC2CCOCC2)C1 [Example 41, (R)-6-methyl-5-(8-methyl-[1,2,4]triazolo[1,5-a]pyridin-6-yl)-1-(1-((tetrahydro-2H-pyran-4-yl)methyl)piperidin-3-yl)-1,3-dihydro-2H-benzo[d]imidazol-2-one] | 27.1
COc1cc(-c2cc3[nH]c(=O)n([C@H]4CC[C@@H](NCC5CCCCC5)CC4)c3cc2C)cn2ncnc12 [Example 66, 1-((1s,4s)-4-((cyclohexylmethyl)amino)cyclohexyl)-5-(8-methoxy-[1,2,4]triazolo[1,5-a]pyridin-6-yl)-6-methyl-1,3-dihydro-2H-benzo[d]imidazol-2-one] | 0.66
COc1cc(-c2cc3[nH]c(=O)n(C4CCN(C)CC4)c3cc2C)cn2ncnc12 [Example 1, 5-(8-methoxy-[1,2,4]triazolo[1,5-a]pyridin-6-yl)-6-methyl-1-(1-methylpiperidin-4-yl)-1,3-dihydro-2H-benzo[d]imidazol-2-one] | 54.1
Cc1cc(-c2ccc3c(c2)[nH]c(=O)n3C2CCN(CC(=O)N(C)C)CC2)cn2ncnc12 [Example 90, N,N-dimethyl-2-(4-(5-(8-methyl-[1,2,4]triazolo[1,5-a]pyridin-6-yl)-2-oxo-2,3-dihydro-1H-benzo[d]imidazol-1-yl)piperidin-1-yl)acetamide] | > 3130

From patent publication US12187723B2 (BRISTOL-MYERS SQUIBB COMPANY, priority 2019, dated 2025)
